Measurements taken from article PMC5605198, “MELK is not necessary for the proliferation of basal-like breast cancer cells” (eLife, 2017).

Tests used:
[1] = molecular target: HER4 (Homo sapiens, UniProt Q15303); experiment: ICKP radiometric kinase assay; format: biochemical; conditions: read-out: % AR (% kinase activity remaining)
[2] = molecular target: T1, DYRK3 (Homo sapiens, UniProt O43781); experiment: ICKP radiometric kinase assay; format: biochemical; conditions: for remaining activity at 1 µM: read-out: % AR (% kinase activity remaining)
T1 sequence (O43781 1-588): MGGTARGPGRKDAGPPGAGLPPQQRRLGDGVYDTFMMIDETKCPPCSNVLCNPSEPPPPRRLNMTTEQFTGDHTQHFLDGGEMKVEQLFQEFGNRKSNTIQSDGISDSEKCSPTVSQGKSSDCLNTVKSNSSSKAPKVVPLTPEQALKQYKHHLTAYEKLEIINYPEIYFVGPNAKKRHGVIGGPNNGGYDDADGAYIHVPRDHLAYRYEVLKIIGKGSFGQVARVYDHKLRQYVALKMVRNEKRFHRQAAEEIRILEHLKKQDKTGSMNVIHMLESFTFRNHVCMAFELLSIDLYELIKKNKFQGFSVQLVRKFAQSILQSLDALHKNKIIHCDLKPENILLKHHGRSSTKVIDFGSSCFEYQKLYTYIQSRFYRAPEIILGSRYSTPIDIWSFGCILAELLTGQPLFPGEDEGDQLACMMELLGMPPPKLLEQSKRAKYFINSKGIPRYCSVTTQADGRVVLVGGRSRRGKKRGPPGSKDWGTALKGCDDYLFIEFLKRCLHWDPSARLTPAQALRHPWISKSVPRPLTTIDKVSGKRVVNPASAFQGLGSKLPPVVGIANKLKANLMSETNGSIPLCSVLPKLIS

[3] = molecular target: p38 delta (Homo sapiens, UniProt O15264); experiment: ICKP radiometric kinase assay; format: biochemical; conditions: read-out: % AR (% kinase activity remaining)
[4] = molecular target: TTBK1 (Homo sapiens, UniProt Q5TCY1); experiment: ICKP radiometric kinase assay; format: biochemical; conditions: read-out: % AR (% kinase activity remaining)
[5] = molecular target: PRK2 (Homo sapiens, UniProt Q16513); experiment: ICKP radiometric kinase assay; format: biochemical; conditions: read-out: % AR (% kinase activity remaining)
[6] = molecular target: NUAK1 (Homo sapiens, UniProt O60285); experiment: ICKP radiometric kinase assay; format: biochemical; conditions: read-out: % AR (% kinase activity remaining)
[7] = molecular target: MKK2 (Homo sapiens, UniProt P36507); experiment: ICKP radiometric kinase assay; format: biochemical; conditions: read-out: % AR (% kinase activity remaining)
[8] = molecular target: EIF2AK3 (Homo sapiens, UniProt Q9NZJ5); experiment: ICKP radiometric kinase assay; format: biochemical; conditions: read-out: % AR (% kinase activity remaining)
[9] = molecular target: SIK3 (Homo sapiens, UniProt Q9Y2K2); experiment: ICKP radiometric kinase assay; format: biochemical; conditions: read-out: % AR (% kinase activity remaining)
[10] = molecular target: PAK2 (Homo sapiens, UniProt Q13177); experiment: ICKP radiometric kinase assay; format: biochemical; conditions: read-out: % AR (% kinase activity remaining)
[11] = molecular target: MKK1 (Homo sapiens, UniProt Q02750); experiment: ICKP radiometric kinase assay; format: biochemical; conditions: read-out: % AR (% kinase activity remaining)
[12] = molecular target: SGK1 (Homo sapiens, UniProt O00141); experiment: ICKP radiometric kinase assay; format: biochemical; conditions: read-out: % AR (% kinase activity remaining)
[13] = molecular target: MLK1 (Homo sapiens, UniProt P80192); experiment: ICKP radiometric kinase assay; format: biochemical; conditions: read-out: % AR (% kinase activity remaining)
[14] = molecular target: RSK1 (Homo sapiens, UniProt Q15418); experiment: ICKP radiometric kinase assay; format: biochemical; conditions: read-out: % AR (% kinase activity remaining)
[15] = molecular target: STK33 (Homo sapiens, UniProt Q9BYT3); experiment: ICKP radiometric kinase assay; format: biochemical; conditions: read-out: % AR (% kinase activity remaining)
[16] = molecular target: TLK1 (Homo sapiens, UniProt Q9UKI8); experiment: ICKP radiometric kinase assay; format: biochemical; conditions: read-out: % AR (% kinase activity remaining)
[17] = molecular target: BTK (Homo sapiens, UniProt Q06187); experiment: ICKP radiometric kinase assay; format: biochemical; conditions: read-out: % AR (% kinase activity remaining)
[18] = molecular target: MPSK1 (Homo sapiens, UniProt O75716); experiment: ICKP radiometric kinase assay; format: biochemical; conditions: read-out: % AR (% kinase activity remaining)
[19] = molecular target: IKK epsilon (Homo sapiens, UniProt Q14164); experiment: ICKP radiometric kinase assay; format: biochemical; conditions: read-out: % AR (% kinase activity remaining)
[20] = molecular target: LKB1 (Homo sapiens, UniProt Q15831); experiment: ICKP radiometric kinase assay; format: biochemical; conditions: read-out: % AR (% kinase activity remaining)
[21] = test system: panel of breast cancer cell lines; experiment: 3-day proliferation assays, panel summary; format: cell-based
Excerpt: As shRNA-mediated knockdown of MELK was previously reported to inhibit the proliferation of BBC cells, we next tested whether pharmacological inhibition of MELK would have similar effects. We treated a panel of breast cancer cell lines, including MDA-MB-468 and ZR-75-1 cells, with HTH-01-091 and other MELK inhibitors; despite our focus on basal-like breast cancers, we included luminal cell lines for comparison. […] We evaluated the inhibitors in longer-term (7-day) proliferation assays and still observed the same trend, and no clear difference between the breast cancer subtypes (Table 4). We authenticated our MDA-MB-468 line by short tandem repeat analysis, and repeated the proliferation assays using MDA-MB-468 cells from a second source to confirm the modest antiproliferative effects of the selective inhibitors (Table 4).

[22] = molecular target: HIPK2 (Homo sapiens, UniProt Q9H2X6); experiment: ICKP radiometric kinase assay; format: biochemical; conditions: read-out: % AR (% kinase activity remaining)
[23] = molecular target: SmMLCK (Homo sapiens, UniProt Q15746); experiment: ICKP radiometric kinase assay; format: biochemical; conditions: for remaining activity at 1 µM: read-out: % AR (% kinase activity remaining)
[24] = molecular target: EPH-B4 (Homo sapiens, UniProt P54760); experiment: ICKP radiometric kinase assay; format: biochemical; conditions: read-out: % AR (% kinase activity remaining)
[25] = molecular target: PAK5 (Homo sapiens, UniProt Q9P286); experiment: ICKP radiometric kinase assay; format: biochemical; conditions: read-out: % AR (% kinase activity remaining)
[26] = molecular target: GSK3A (Homo sapiens, UniProt P49840); experiment: Z’-LYTE enzymatic assay; conditions: Z’-LYTE assay at [ATP]=apparent Km; read-out: Biochemical IC50 GSK3A
[27] = molecular target: IRAK1 (Homo sapiens, UniProt P51617); experiment: ICKP radiometric kinase assay; format: biochemical; conditions: read-out: % AR (% kinase activity remaining)
[28] = molecular target: JAK2 (Homo sapiens, UniProt O60674); experiment: ICKP radiometric kinase assay; format: biochemical; conditions: read-out: % AR (% kinase activity remaining)
[29] = molecular target: MAPKAP-K2 (Homo sapiens, UniProt P49137); experiment: ICKP radiometric kinase assay; format: biochemical; conditions: read-out: % AR (% kinase activity remaining)
[30] = molecular target: VEGFR1 (Homo sapiens, UniProt P17948); experiment: ICKP radiometric kinase assay; format: biochemical; conditions: read-out: % AR (% kinase activity remaining)
[31] = molecular target: GCK (Homo sapiens, UniProt Q12851); experiment: ICKP radiometric kinase assay; format: biochemical; conditions: read-out: % AR (% kinase activity remaining)

Chain of p38 delta (O15264 whole entry): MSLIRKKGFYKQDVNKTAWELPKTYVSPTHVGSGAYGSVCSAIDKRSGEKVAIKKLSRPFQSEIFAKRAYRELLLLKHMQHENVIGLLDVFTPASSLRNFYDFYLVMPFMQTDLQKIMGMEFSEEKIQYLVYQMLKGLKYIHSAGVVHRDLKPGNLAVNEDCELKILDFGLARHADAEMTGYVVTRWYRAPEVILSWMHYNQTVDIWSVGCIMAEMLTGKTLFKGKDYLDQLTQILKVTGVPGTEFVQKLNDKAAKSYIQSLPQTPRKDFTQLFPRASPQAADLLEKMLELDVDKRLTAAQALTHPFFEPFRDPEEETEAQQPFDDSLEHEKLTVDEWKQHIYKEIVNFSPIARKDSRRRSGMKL
Chain of EPH-B4 (P54760 16-987): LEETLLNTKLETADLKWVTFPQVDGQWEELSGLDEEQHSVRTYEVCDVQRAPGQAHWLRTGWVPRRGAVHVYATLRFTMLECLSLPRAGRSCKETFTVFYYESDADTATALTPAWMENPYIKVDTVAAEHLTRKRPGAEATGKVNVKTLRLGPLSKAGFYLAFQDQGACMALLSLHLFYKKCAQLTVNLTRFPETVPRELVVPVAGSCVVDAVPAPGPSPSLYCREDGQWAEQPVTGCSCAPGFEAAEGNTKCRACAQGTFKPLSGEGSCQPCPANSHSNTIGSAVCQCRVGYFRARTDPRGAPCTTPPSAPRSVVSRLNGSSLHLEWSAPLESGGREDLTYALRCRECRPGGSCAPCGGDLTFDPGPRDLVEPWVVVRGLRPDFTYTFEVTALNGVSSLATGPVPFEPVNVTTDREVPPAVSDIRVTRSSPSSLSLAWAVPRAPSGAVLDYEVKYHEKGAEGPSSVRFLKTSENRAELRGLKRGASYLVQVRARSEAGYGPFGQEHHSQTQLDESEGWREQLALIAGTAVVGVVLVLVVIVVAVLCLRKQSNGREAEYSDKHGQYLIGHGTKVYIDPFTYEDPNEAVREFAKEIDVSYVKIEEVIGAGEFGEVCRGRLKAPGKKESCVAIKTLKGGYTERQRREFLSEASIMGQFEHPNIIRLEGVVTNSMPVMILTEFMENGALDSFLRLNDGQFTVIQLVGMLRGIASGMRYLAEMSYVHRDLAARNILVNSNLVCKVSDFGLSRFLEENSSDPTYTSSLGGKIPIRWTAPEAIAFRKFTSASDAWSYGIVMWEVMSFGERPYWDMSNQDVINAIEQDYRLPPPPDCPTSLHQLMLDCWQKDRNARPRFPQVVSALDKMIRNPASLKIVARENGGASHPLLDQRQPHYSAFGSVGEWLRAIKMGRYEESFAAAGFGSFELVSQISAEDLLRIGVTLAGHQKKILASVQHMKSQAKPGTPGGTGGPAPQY
Chain of PRK2 (Q16513 whole entry): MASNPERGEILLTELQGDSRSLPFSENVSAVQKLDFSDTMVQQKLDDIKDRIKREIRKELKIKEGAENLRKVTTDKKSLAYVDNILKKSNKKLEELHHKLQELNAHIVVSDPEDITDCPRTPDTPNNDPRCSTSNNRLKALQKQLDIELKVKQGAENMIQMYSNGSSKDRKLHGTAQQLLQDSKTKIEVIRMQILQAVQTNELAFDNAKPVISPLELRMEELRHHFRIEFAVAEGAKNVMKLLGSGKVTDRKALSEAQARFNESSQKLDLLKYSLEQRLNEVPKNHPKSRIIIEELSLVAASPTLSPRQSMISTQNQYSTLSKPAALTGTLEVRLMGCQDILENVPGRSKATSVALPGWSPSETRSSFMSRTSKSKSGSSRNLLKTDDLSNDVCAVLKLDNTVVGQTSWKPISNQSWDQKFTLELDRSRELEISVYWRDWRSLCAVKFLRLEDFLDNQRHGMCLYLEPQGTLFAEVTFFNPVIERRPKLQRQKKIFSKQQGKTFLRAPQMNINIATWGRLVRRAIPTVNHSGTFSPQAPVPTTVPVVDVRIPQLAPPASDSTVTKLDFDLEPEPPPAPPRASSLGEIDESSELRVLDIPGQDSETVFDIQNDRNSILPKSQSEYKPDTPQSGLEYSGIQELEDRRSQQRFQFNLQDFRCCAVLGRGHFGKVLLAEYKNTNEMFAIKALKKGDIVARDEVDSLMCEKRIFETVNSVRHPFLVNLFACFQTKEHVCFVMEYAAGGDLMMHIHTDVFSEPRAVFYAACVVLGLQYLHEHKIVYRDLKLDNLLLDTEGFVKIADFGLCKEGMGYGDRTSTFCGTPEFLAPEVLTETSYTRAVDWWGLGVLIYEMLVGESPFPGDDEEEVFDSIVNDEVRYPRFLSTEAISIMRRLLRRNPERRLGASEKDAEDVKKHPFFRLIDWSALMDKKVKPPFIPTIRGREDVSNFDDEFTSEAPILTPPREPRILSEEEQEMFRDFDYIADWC
Chain of MLK1 (P80192 whole entry): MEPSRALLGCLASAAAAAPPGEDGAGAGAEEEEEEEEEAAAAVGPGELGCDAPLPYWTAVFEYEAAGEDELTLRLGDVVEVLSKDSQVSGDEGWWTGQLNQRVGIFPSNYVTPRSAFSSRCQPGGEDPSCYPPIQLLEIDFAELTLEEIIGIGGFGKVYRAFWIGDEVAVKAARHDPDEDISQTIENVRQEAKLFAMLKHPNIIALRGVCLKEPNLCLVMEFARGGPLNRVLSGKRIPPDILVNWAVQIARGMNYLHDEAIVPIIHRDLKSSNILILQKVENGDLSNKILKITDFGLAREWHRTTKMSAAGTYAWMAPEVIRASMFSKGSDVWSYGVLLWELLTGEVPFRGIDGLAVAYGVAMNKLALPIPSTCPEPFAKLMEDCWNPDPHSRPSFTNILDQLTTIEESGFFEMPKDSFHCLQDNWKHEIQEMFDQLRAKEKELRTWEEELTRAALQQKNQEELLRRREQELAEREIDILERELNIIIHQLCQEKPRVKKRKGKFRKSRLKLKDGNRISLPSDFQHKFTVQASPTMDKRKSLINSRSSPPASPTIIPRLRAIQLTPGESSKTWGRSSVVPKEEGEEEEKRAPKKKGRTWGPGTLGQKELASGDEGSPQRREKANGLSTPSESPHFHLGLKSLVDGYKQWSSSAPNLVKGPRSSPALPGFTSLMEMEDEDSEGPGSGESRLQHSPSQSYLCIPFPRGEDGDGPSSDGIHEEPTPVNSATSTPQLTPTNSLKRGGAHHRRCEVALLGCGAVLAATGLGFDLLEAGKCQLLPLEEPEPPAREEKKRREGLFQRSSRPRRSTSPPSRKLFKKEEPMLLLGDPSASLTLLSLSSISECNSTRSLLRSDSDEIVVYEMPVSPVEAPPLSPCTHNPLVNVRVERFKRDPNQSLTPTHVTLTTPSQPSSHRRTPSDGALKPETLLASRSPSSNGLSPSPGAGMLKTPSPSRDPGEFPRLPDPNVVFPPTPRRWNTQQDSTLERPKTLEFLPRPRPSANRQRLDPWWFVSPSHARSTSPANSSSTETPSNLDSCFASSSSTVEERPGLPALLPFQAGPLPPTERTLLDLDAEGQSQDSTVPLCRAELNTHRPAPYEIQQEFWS
Chain of MKK2 (P36507 whole entry): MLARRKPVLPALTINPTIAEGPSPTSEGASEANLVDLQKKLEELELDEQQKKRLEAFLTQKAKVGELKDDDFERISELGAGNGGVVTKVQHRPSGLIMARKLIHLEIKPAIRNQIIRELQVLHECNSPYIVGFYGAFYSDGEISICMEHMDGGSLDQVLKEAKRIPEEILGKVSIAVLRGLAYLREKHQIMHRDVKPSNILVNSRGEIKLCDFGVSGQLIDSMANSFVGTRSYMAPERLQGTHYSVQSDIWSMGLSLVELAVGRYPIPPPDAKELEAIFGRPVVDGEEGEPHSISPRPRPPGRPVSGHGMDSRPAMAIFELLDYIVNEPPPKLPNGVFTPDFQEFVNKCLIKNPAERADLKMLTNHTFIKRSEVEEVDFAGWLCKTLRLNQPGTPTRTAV
Chain of JAK2 (O60674 whole entry): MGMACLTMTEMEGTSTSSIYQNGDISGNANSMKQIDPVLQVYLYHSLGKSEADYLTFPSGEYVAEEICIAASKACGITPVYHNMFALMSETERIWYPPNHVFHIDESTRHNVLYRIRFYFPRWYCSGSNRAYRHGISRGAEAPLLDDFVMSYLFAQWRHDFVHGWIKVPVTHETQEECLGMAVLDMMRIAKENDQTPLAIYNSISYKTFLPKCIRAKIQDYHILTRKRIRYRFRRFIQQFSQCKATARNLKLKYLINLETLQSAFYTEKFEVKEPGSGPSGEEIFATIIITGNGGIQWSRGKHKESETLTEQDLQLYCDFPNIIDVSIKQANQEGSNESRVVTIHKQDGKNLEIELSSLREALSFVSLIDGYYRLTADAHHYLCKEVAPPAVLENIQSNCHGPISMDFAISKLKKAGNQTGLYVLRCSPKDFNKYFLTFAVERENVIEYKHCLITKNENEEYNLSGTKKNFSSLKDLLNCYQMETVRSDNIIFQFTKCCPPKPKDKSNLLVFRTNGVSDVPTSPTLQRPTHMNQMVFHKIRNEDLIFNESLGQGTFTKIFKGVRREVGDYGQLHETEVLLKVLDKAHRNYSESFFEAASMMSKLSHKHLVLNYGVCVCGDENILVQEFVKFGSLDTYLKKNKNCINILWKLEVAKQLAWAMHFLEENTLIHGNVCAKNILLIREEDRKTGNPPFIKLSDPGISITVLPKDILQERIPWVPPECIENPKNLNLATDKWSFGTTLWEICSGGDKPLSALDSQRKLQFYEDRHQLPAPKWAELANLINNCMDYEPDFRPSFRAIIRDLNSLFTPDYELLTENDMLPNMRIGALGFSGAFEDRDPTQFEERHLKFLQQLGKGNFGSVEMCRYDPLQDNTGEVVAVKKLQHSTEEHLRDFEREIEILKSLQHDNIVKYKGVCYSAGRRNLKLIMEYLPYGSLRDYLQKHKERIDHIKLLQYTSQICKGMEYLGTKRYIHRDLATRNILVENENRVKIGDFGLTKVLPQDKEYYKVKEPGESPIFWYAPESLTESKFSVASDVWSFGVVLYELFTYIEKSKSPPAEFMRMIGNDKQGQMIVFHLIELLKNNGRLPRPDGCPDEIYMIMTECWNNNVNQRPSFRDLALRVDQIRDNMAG

SMILES | remaining activity at 1 µM [1] | remaining activity at 1 µM [2] | remaining activity at 1 µM [3] | remaining activity at 1 µM [4] | remaining activity at 1 µM [5] | remaining activity at 1 µM [6] | remaining activity at 1 µM [7] | remaining activity at 1 µM [8] | remaining activity at 1 µM [9] | remaining activity at 1 µM [10] | remaining activity at 1 µM [11] | remaining activity at 1 µM [12] | remaining activity at 1 µM [13] | remaining activity at 1 µM [14] | remaining activity at 1 µM [15] | remaining activity at 1 µM [16] | remaining activity at 1 µM [17] | remaining activity at 1 µM [18] | remaining activity at 1 µM [19] | remaining activity at 1 µM [20] | further results
CN(C)C[C@H]1CC[C@H](N2C(=O)NCc3cnc4ccc(-c5cc(Cl)c(O)c(Cl)c5)cc4c32)CC1 [HTH-01-091, 9-(3,5-dichloro-4-hydroxyphenyl)-1-(trans-4-((dimethylamino)methyl)cyclohexyl)-3,4-dihydropyrimido[5,4 c]quinolin-2(1H)-one] | 84% | 5% | 89% | 103% | 77% | 66% | 75% | 114% | 83% | 88% | 62% | 72% | 35% | 48% | 26% | 95% | 45% | 107% | 92% | 100% | IC50 ([2]; radioactive filter-binding assay provided by the ICKP, read-out: Enzymatic IC50 DYRK3): 41.8 nM; antiproliferative IC50 values, fold less potent than OTSSP167 [21]: at least 300 fold; remaining activity at 1 µM [22]: 13%; IC50 ([23]; radioactive filter-binding assay provided by the ICKP, read-out: Enzymatic IC50 SmMLCK): 109 nM; remaining activity at 1 µM [23]: 8%; remaining activity at 1 µM [24]: 104%; remaining activity at 1 µM [25]: 73%; IC50 [26]: 1740 nM; remaining activity at 1 µM [27]: 86%; remaining activity at 1 µM [28]: 39%; remaining activity at 1 µM [29]: 98%; remaining activity at 1 µM [30]: 43%; remaining activity at 1 µM [31]: 16%
CC(=O)c1cnc2ccc(-c3cc(Cl)c(O)c(Cl)c3)nc2c1N[C@H]1CC[C@H](CN(C)C)CC1 [OTSSP167] | 4% | 1% | 4% | 82% | 2% | 0% | 10% | 7% | 4% | 74% | 3% | 12% | 1% | 3% | 10% | 58% | 7% | 5% | 2% | 83% | IC50 ([21]; 72 h, most cell lines tested, read-out: half maximal killing): < 100 nM; remaining activity at 1 µM [22]: 2%; remaining activity at 1 µM [23]: 6%; remaining activity at 1 µM [24]: 2%; remaining activity at 1 µM [25]: 19%; IC50 [26]: 1.6 nM; remaining activity at 1 µM [27]: 3%; remaining activity at 1 µM [28]: 3%; remaining activity at 1 µM [29]: 14%; remaining activity at 1 µM [30]: 1%; remaining activity at 1 µM [31]: 0%
